# Test results reported in patent US12582731B2, “Method to decontaminate solid surface” (BIOMONETA RESEARCH PVT LTD, priority 2022, dated 2026).
# Experiments:
# [1] = system: microbial load; assay: Microbial load reduction on QAC-coated cotton cloth with or without electric field; assay type: cell-based
# Experimental: The effect of QAC coating and electric field application on flexible solid surfaces was analysed. The solid surface analysed was fabric (cotton cloth). The procedure for coating of QAC (CTAB or benzalkonium chloride) onto the cotton cloth was identical to the procedure described in Example 1. The final coated amount of QAC (CTAB or benzalkonium chloride) was between 0.01-0.05 mg/cm^2 of the solid surface. The electric field in this experiment was applied via. switch mode power supply (SMPS) with a voltage of 4 kV/cm coupled with a capacitance of 0.05 μF for various time-periods.
# Reduction in microbial load was analysed using different methods.
# [2] = system: microbial load; assay: Microbial load reduction on cotton cloth coated with quaternary ammonium compound alone; assay type: cell-based; details: no electric field
# Experimental: The solid surface (cotton cloth) was suspended in a solution containing cetyltrimethylammonium bromide (CTAB) or alkyl dimethyl benzyl ammonium chloride (benzalkonium chloride) at various concentrations for about 2 hours. The solid surfaces were then heat dried in a furnace where the temperature was set at about 80° C., for about 8 hours. Once dried, the solid surfaces coated with QAC were ready to be used for various applications.
# Reduction in microbial load was analysed at different concentrations of QACs.
substance,measurement,setting,value
alkyl dimethyl benzyl ammonium chloride [benzalkonium chloride],Microbial Load Reduction (Log10 Scale),"[1]; cotton cloth coated with 1% w/v, With Electric Field (SMPS, 4 kV/cm, 0.05 μF), 0 mins",0.00 Log10
same,Microbial Load Reduction (Log10 Scale),"[1]; cotton cloth coated with 1% w/v, With Electric Field (SMPS, 4 kV/cm, 0.05 μF), 10 mins",1.51 Log10
same,Microbial Load Reduction (Log10 Scale),"[1]; cotton cloth coated with 1% w/v, With Electric Field (SMPS, 4 kV/cm, 0.05 μF), 30 mins",2.39 Log10
same,Microbial Load Reduction (Log10 Scale),"[1]; cotton cloth coated with 1% w/v, Without Electric Field, 0 mins",0.00 Log10
same,Microbial Load Reduction (Log10 Scale),"[1]; cotton cloth coated with 1% w/v, Without Electric Field, 10 mins",0.82 Log10
same,Microbial Load Reduction (Log10 Scale),"[1]; cotton cloth coated with 1% w/v, Without Electric Field, 30 mins",1.70 Log10
same,Microbial Load Reduction (Log10 Scale),"[1]; cotton cloth coated with 10% w/v, With Electric Field (SMPS, 4 kV/cm, 0.05 μF), 0 mins",0.00 Log10
same,Microbial Load Reduction (Log10 Scale),"[1]; cotton cloth coated with 10% w/v, With Electric Field (SMPS, 4 kV/cm, 0.05 μF), 10 mins",1.16 Log10
same,Microbial Load Reduction (Log10 Scale),"[1]; cotton cloth coated with 10% w/v, With Electric Field (SMPS, 4 kV/cm, 0.05 μF), 30 mins",3.03 Log10
same,Microbial Load Reduction (Log10 Scale),"[1]; cotton cloth coated with 10% w/v, Without Electric Field, 0 mins",0.00 Log10
same,Microbial Load Reduction (Log10 Scale),"[1]; cotton cloth coated with 10% w/v, Without Electric Field, 10 mins",0.92 Log10
same,Microbial Load Reduction (Log10 Scale),"[1]; cotton cloth coated with 10% w/v, Without Electric Field, 30 mins",3.10 Log10
same,Microbial Load Reduction (Log10 Scale),"[2]; cotton cloth coated with 1% w/v, 0 mins",0.00 Log10
same,Microbial Load Reduction (Log10 Scale),"[2]; cotton cloth coated with 1% w/v, 10 mins",0.82 Log10
same,Microbial Load Reduction (Log10 Scale),"[2]; cotton cloth coated with 1% w/v, 30 mins",1.70 Log10
same,Microbial Load Reduction (Log10 Scale),"[2]; cotton cloth coated with 1% w/v, 45 mins",4.57 Log10
same,Microbial Load Reduction (Log10 Scale),"[2]; cotton cloth coated with 1% w/v, 60 mins",7.48 Log10
same,Microbial Load Reduction (Log10 Scale),"[2]; cotton cloth coated with 1% w/v, 90 mins",7.48 Log10
same,Microbial Load Reduction (Log10 Scale),"[2]; cotton cloth coated with 10% w/v, 0 mins",0.00 Log10
same,Microbial Load Reduction (Log10 Scale),"[2]; cotton cloth coated with 10% w/v, 10 mins",0.92 Log10
same,Microbial Load Reduction (Log10 Scale),"[2]; cotton cloth coated with 10% w/v, 30 mins",3.10 Log10
same,Microbial Load Reduction (Log10 Scale),"[2]; cotton cloth coated with 10% w/v, 45 mins",7.30 Log10
same,Microbial Load Reduction (Log10 Scale),"[2]; cotton cloth coated with 10% w/v, 60 mins",7.30 Log10
same,Microbial Load Reduction (Log10 Scale),"[2]; cotton cloth coated with 10% w/v, 90 mins",7.30 Log10
